Article PMC11783400, “Assessment of Potential Drug–Drug Interactions for Novel Oral Melanocortin‐1 Receptor Agonist Dersimelagon” (Pharmacology Research & Perspectives, 2025)
pIC50: −log10 of the molar value.

How the values were obtained:
OCT2 = target: T1, OCT2 (Homo sapiens, UniProt O15244); assay: uptake inhibition in HEK293 cells expressing the transporter; assay type: cell-based
T1 construct: gene SLC22A2; expressed in HEK293 cells
T1 sequence (O15244 1-555): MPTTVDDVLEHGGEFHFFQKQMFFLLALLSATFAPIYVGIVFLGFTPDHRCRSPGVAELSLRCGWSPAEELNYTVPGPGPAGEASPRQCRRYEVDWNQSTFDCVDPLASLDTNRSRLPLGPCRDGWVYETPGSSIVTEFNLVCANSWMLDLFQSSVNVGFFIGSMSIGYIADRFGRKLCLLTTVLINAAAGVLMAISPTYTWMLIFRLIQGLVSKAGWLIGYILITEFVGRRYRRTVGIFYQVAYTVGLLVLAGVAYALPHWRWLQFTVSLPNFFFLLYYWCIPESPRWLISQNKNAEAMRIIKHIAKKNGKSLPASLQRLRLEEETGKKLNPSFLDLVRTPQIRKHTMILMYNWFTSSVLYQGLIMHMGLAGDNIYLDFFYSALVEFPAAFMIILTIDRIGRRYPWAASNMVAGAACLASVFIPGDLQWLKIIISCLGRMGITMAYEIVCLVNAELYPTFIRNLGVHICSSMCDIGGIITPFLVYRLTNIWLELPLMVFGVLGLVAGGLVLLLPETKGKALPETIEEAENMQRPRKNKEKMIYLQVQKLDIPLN
Source text: uptake inhibition in HEK293 cells expressing the transporter on OCT2

P‐gp (P‐glycoprotein) = target: T2, P‐gp (P‐glycoprotein) (Homo sapiens, UniProt P08183); assay: transport inhibition in Caco-2 monolayers; assay type: cell-based
T2 construct: gene ABCB1; endogenous transporter in Caco-2 cell monolayers
T2 sequence (P08183 whole entry): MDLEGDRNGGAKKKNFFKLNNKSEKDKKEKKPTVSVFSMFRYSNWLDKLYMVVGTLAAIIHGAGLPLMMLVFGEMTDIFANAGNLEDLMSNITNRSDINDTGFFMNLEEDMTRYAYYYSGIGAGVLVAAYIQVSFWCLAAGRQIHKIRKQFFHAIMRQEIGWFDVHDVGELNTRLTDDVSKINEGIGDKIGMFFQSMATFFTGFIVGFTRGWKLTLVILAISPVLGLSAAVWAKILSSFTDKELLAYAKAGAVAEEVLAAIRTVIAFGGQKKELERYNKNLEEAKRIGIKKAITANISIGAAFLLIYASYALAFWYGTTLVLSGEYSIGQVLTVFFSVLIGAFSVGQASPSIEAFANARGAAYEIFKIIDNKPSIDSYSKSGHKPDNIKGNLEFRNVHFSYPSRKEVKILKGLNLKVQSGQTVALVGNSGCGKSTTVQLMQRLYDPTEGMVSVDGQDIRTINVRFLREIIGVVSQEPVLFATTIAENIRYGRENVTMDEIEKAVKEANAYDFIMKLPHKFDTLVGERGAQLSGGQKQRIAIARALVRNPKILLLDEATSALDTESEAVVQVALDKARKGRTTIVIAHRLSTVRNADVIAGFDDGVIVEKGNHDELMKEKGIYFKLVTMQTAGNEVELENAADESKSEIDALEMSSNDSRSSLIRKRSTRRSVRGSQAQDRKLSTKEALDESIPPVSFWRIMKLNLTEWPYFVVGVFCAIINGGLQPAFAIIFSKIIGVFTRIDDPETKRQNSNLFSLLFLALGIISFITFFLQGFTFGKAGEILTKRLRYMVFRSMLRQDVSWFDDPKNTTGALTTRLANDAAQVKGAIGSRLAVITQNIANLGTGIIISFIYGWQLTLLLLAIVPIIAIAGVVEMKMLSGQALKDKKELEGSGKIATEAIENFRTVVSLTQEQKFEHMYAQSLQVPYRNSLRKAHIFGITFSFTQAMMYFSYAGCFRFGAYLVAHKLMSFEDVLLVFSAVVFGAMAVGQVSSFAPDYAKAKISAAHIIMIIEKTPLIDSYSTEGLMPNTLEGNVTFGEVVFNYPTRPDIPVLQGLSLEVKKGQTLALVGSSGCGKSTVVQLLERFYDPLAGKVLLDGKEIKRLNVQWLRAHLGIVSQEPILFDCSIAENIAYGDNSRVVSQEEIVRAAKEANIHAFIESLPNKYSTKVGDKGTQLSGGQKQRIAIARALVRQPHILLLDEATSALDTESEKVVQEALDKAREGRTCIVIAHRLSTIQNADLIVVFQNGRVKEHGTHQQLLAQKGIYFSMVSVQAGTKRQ
Source text: transport inhibition in Caco-2 monolayers on P‐gp (P‐glycoprotein)

[1] = target: T3, BCRP (breast cancer resistance protein) (Homo sapiens, UniProt Q9UNQ0); assay: transport inhibition in Caco-2 monolayers; assay type: cell-based
T3 construct: gene ABCG2; endogenous transporter in Caco-2 cell monolayers
T3 sequence (Q9UNQ0 1-655): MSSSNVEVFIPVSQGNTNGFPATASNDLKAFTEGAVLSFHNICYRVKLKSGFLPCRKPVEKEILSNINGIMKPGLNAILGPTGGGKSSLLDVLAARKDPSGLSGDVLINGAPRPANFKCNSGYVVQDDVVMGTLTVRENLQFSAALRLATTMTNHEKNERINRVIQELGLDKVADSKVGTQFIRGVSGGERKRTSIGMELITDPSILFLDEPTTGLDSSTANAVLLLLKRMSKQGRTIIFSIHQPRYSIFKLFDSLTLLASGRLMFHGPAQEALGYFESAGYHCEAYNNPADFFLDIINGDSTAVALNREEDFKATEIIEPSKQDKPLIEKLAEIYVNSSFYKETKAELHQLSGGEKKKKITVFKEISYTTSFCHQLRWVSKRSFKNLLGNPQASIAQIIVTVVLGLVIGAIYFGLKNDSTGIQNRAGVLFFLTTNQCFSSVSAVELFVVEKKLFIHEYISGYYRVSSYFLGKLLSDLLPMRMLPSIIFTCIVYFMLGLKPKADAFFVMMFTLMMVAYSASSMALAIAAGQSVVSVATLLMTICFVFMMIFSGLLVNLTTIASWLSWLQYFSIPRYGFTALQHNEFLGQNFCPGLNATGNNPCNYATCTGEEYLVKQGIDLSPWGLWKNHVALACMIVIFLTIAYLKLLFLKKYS
Source text: transport inhibition in Caco-2 monolayers on BCRP (breast cancer resistance protein)

MATE2‐K = target: T4, MATE2‐K (Homo sapiens, UniProt Q86VL8); assay: uptake inhibition in HEK293 cells expressing the transporter; assay type: cell-based
T4 construct: gene SLC47A2; expressed in HEK293 cells
T4 sequence (Q86VL8 1-566 isoform Q86VL8-3): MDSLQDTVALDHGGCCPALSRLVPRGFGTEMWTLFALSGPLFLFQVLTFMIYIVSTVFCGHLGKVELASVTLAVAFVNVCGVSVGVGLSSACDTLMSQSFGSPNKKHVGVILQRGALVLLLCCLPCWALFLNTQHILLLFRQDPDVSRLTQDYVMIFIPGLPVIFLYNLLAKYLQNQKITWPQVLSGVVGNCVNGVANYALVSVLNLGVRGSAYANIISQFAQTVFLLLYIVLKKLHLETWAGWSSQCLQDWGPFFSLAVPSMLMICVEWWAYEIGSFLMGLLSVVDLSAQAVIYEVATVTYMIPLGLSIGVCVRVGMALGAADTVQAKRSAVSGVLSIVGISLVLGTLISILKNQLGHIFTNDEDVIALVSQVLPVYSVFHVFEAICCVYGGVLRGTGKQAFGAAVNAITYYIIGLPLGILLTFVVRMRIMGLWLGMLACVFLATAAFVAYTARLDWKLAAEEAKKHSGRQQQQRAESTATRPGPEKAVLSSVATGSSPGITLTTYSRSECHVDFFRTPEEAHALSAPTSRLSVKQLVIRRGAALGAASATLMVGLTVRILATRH
Source text: uptake inhibition in HEK293 cells expressing the transporter on MATE2‐K

CYP3A4 (Table 1); CYP3A = target: T5, CYP3A4 (Table 1); CYP3A (Homo sapiens, UniProt P08684); assay: CYP activity inhibition in human liver microsomes; assay type: biochemical; conditions: read-out: IC50 (μM) / Direct inhibition
T5 construct: native enzyme in human liver microsomes
T5 sequence (P08684 2-503): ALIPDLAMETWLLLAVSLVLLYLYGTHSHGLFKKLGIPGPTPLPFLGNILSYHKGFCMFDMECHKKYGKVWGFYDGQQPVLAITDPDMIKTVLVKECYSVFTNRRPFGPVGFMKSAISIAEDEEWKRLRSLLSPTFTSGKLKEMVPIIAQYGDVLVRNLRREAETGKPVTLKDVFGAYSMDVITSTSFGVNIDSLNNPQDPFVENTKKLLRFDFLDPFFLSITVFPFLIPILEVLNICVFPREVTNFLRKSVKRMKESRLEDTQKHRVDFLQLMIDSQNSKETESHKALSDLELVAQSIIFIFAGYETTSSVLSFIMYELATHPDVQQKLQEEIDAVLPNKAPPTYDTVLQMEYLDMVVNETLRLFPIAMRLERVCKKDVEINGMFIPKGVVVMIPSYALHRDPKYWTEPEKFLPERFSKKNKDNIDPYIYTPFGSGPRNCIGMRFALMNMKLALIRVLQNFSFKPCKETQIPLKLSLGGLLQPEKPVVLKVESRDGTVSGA
Source text: CYP activity inhibition in human liver microsomes on CYP3A4 (Table 1); CYP3A (text)

CYP2D6 = target: T6, CYP2D6 (Homo sapiens, UniProt P10635); assay: CYP activity inhibition in human liver microsomes; assay type: biochemical; conditions: read-out: IC50 (μM) / Direct inhibition
T6 construct: native enzyme in human liver microsomes
T6 sequence (P10635 whole entry): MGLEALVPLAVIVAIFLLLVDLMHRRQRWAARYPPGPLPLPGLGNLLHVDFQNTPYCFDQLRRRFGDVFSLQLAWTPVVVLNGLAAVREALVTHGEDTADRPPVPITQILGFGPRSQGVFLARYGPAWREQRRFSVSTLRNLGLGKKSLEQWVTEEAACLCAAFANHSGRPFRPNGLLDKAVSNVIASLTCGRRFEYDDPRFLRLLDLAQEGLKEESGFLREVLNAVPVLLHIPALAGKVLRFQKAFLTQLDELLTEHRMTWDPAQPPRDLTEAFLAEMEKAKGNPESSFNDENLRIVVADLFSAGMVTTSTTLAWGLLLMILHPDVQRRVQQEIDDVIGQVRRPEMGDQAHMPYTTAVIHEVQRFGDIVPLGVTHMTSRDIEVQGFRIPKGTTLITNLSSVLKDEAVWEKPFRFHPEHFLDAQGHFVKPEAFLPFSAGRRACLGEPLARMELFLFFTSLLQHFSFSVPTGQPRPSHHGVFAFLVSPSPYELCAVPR
Source text: CYP activity inhibition in human liver microsomes on CYP2D6

OATP1B3 = target: T7, OATP1B3 (Homo sapiens, UniProt Q9NPD5); assay: uptake inhibition in HEK293 cells expressing the transporter; assay type: cell-based
T7 construct: gene SLCO1B3; expressed in HEK293 cells
T7 sequence (Q9NPD5 1-702): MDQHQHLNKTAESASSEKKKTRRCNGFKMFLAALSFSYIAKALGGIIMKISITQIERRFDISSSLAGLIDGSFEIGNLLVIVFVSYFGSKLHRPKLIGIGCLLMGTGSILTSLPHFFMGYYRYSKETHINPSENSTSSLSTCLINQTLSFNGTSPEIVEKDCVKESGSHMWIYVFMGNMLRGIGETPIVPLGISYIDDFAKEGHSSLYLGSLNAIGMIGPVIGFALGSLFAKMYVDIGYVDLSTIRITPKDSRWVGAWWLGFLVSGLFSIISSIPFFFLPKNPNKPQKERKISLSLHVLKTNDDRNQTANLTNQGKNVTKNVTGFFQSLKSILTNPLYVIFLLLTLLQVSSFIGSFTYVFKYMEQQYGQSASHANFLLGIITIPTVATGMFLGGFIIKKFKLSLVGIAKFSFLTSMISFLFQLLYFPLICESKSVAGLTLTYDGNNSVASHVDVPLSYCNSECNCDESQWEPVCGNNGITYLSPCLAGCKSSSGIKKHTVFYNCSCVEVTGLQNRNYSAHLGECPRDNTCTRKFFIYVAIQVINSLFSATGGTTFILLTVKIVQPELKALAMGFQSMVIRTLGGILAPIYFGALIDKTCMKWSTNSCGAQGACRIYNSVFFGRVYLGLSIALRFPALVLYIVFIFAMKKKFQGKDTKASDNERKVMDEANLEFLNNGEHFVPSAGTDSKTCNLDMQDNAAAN
Source text: uptake inhibition in HEK293 cells expressing the transporter on OATP1B3

CYP2C19 = target: T8, CYP2C19 (Homo sapiens, UniProt P33261); assay: CYP activity inhibition in human liver microsomes; assay type: biochemical; conditions: read-out: IC50 (μM) / Direct inhibition
T8 construct: native enzyme in human liver microsomes
T8 sequence (P33261 whole entry): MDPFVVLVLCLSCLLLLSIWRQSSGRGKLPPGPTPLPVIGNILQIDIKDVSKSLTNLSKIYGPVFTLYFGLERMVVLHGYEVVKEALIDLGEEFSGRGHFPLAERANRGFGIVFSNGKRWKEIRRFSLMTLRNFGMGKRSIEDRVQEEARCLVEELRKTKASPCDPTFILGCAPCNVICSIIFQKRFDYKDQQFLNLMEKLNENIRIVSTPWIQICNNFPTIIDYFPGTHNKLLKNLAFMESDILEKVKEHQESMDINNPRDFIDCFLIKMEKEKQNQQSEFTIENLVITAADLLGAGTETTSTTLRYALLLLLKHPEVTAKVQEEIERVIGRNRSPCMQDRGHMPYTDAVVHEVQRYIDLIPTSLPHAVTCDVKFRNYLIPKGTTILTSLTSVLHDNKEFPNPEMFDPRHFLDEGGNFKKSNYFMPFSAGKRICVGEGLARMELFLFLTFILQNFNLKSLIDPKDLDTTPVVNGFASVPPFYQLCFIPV
Source text: CYP activity inhibition in human liver microsomes on CYP2C19

## COC[C@H]1CN(C(=O)[C@]2(F)CN(C3CCCC3)C[C@H]2c2ccc(OC)cc2)C[C@@H]1c1ccc(C(F)(F)F)cc1N1CCC(C(=O)O)CC1 [dersimelagon]
OCT2
  pIC50: < 4.54
P‐gp (P‐glycoprotein)
  pIC50: 6.46
[1]
  pIC50: 6.33
MATE2‐K
  pIC50: < 4.56
CYP3A4 (Table 1); CYP3A
  IC50: 74.6 µM
CYP2D6
  IC50: > 100 µM
OATP1B3
  pIC50: 7.33
CYP2C19
  IC50: 23.4 µM
